Source: US20190111158A1, “INJECTION COMPOSITION FOR LABELING LESION” (NATIONAL CANCER CENTER, priority 2016, published 2019)

Key:
[1] = cited from earlier work
[2] = near-infrared fluorescence signal intensity of ICG-MAA complexes at various ICG/MAA mixing ratios; format: physicochemical; conditions: for near-infrared fluorescence signal intensity: MAA 0 mg/mL

CC1(C)C(/C=C/C=C/C=C/C=C2\N(CCCCS(=O)(=O)O)c3ccc4ccccc4c3C2(C)C)=[N+](CCCCS(=O)(=O)[O-])c2ccc3ccccc3c21 [ICG, indocyanine green]
clinical safety ([1]; 18 breast cancer patients (T. Kitai, et al., Breast Cancer, 12:211-215, 2005)): safe clinical use
elimination after injection into the human body ([1]; human body): decomposed and disappears or is excreted in the urine or feces within an hour
near-infrared fluorescence signal intensity ([2]; ICG 1.3 (μN)): 18
near-infrared fluorescence signal intensity ([2]; ICG 3.9 (μN)): 120
near-infrared fluorescence signal intensity ([2]; ICG 6.5 (μN)): 212
near-infrared fluorescence signal intensity ([2]; ICG 9.0 (μN)): 289
near-infrared fluorescence signal intensity ([2]; ICG 12.9 (μN)): 363
near-infrared fluorescence signal intensity ([2]; ICG 25.8 (μN)): 466
near-infrared fluorescence signal intensity ([2]; ICG 38.7 (μN)): 425
near-infrared fluorescence signal intensity ([2]; ICG 51.6 (μN)): 399
near-infrared fluorescence signal intensity ([2]; ICG 64.5 (μN)): 374
near-infrared fluorescence signal intensity ([2]; ICG 77.4 (μN)): 332
near-infrared fluorescence signal intensity ([2]; ICG 103 (μN)): 289
near-infrared fluorescence signal intensity ([2]; ICG 258 (μN)): 139
near-infrared fluorescence signal intensity ([2]; ICG 516 (μN)): 71
near-infrared fluorescence signal intensity ([2]; ICG 774 (μN)): 39
near-infrared fluorescence signal intensity ([2]; ICG 1032 (μN)): 30
ICG concentration with the highest value of near-infrared fluorescence signal intensity ([2]; MAA was not treated): 25.8 µM
